Test [1] has as its system Mycobacterium tuberculosis. Put plainly: Antimycobacterial activity against multidrug resistance Mycobacterium tuberculosis CCM10.1 assessed as reduction in bacterial growth incubated for 7 days by resazurin based assay. Type of test: functional. As to conditions: CCM10.1, 168 h.
In test [2] the test system is Mycobacterium tuberculosis. Kind of test: Antimycobacterial activity against multidrug resistance Mycobacterium tuberculosis CCM11.1 assessed as reduction in bacterial growth incubated for 7 days by resazurin based assay. As to conditions: CCM11.1, 168 h. Type of test: functional. Background: Resazurin is reduced to fluorescent resorufin, in cell work by metabolically active cells.

Values after ≈ are worked out from the molar mass of the structure shown. Some results are limits rather than exact numbers.

With `Cc1cc(CNC2CCCCC2)c(C)n1-c1ccc(C(C)C)cc1`, the MIC (usually the least concentration at which growth counts as inhibited) in test [1] is 0.00125 µg/mL (≈ 0.00385 µM); in test [2], 0.5 µg/mL (≈ 1.54 µM).

`COc1ccc(-n2c(C)cc(CNC3CCCCC3)c2C)cc1`: the minimum inhibitory concentration (MIC) in test [1] is below 0.000625 µg/mL; in test [2] it was 0.5 µg/mL (≈ 1.6 µM).

On to `Cc1cc(CN[C@H]2C[C@@H]3CC[C@H]2C3)c(C)n1-c1ccc(Cl)cc1`, for which the MIC in test [1] is 0.0025 µg/mL (≈ 0.0076 µM); in test [2], 1 µg/mL (≈ 3.04 µM).

For the molecule `Cc1cc(CNCC2CCCCC2)c(C)n1-c1ccc(Cl)cc1`, the figures for the MIC in test [1] and in test [2] were below 0.000625 µg/mL and 0.12 µg/mL (≈ 0.363 µM), respectively.

The values above are taken from ChEMBL document CHEMBL4613277, “Improving the Potency of N-Aryl-2,5-dimethylpyrroles against Multidrug-Resistant and Intracellular Mycobacteria” (ACS Med Chem Lett, 2020).
